In patent US7538122B2, “Heterocyclic antiviral compounds” (Roche Palo Alto LLC, priority 2004, dated 2009) one finds IC50 and melting point data, which are given here for seven molecules.

Read-outs that look alike come from different tables or passages of the source.

The term IC50 denotes the midpoint of a concentration-inhibition curve. In general, melting point refers to the temperature, or range, at which the solid turns liquid.

The target in one data set is T1, Human CCR5 receptor (Homo sapiens, UniProt P51681).
T1 construct: expressed in transfected cells
T1 sequence (P51681 whole entry): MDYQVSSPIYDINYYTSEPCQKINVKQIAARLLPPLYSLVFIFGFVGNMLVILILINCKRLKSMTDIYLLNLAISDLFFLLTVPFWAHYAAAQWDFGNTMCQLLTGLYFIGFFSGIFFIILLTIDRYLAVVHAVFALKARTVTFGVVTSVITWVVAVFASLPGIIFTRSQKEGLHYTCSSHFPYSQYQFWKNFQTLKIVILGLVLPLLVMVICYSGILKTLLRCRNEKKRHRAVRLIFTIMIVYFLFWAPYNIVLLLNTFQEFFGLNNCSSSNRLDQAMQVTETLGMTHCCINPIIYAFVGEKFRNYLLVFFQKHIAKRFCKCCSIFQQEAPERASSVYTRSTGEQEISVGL
The data set can be described thus: Human CCR5 receptor-ligand binding assay (125I chemokine displacement on CHO-Gα16-hCCR5 cells). The settings on record: RT 2 h. The text has this:
Human CCR5 Receptor-Ligand Binding Assay Protocol
Human CCR5 receptor (Genebank ID: 29169292) was cloned into mammalian expression vector, pTarget (Promega). The construct was transfected into CHO-Gα16 cells by using Fugene Reagent (Roche). Clones were selected under antibiotic pressure (G418 and Hygromycin) and sorted 4 times with a fluorescence activates cell sorter and a monoclonal antibody specific for CCR5 receptor (BD Biosciences Pharmigen, Mab 2D7, Cat. No. 555993). The clone with highest expression (100,000 copies per cell) was chosen for the binding assays.
Adherent cells in […] tissue culture flask (˜90% confluent) were harvested using 1 mM EDTA in PBS (phosphate-buffered saline) without Ca^2+ and Mg^2+. Cells were washed twice with PBS containing no Ca^2+ and Mg^2+. CHO-Gα16-hCCR5 cells were then resuspended (1×10^6/ml) in ice cold binding buffer (50 mM HEPES, 1 mM CaCl2, 5 mM MgCl2, 0.5% BSA, 0.05% NaN3, pH 7.24), pH 7.4), supplemented with freshly made 0.5% BSA and 0.05% NaN3.
Eighty μl CHO-Gα16-hCCR5 (1×10^6/ml) cells were added to 96 well plates. All dilutions were made in binding buffer (50 mM HEPES, 1 mM CaCl2, 5 mM MgCl2, 0.5% BSA, 0.05% NaN3, pH 7.24).
The plates were incubated on a cell shaker at RT for 2 h with a final concentration of 0.1 nM ^125I RANTES or ^125I MIP-1α or ^125I MIP-1β. The compound dilutions were made in PBS, 1% BSA. Total reaction volume was 100 μl per well. The test compounds were added to the cells prior to the addition of radioligand.
After incubation, the cells were harvested onto GF/C filter plates using Packard cell harvester. Filters were pretreated with 0.3% PEI/0.2% BSA for 30 min. The filter plate was washed rapidly 5 times with 25 mM HEPES, 500 mM NaCl, 1 mM CaCl2 and 5 mM MgCl2 adjusted to pH 7.1. Plates were dried in oven (70° C.) for 20 min, added with 40 μl scintillation fluid and sealed with Packard TopSeal-A. Packard Top Count was used to measure of the radioactivity for 1 min per well.
Total binding was determined with control wells added with radioisotope and buffer and the non-specific binding was determined using an excess cold RANTES to some of the control wells. Specific binding was determined by subtracting the non-specific form total binding. Results are expressed as the percentage of specific ^125I RANTES binding. IC50 values were determined using varying concentrations of the test ligand in triplicates and the data was analyzed using GraphPad Prism (GraphPad, San Diego, Calif.).

Where [1] appears, read: 0.1 nM 125I MIP-1β, read-out: Binding IC50 Mip-1b.
[2] abbreviates: 0.1 nM 125I RANTES, read-out: Binding IC50 RANTES.
Setting [3] is: 0.1 nM 125I MIP-1α, read-out: Binding IC50 Mip-1a.

Consider “4-Butyl-8-[1-(2,6-dimethyl-benzoyl)-piperidin-4-yl]-3-(2-methyl-butyl)-1-oxa-3,8-diaza-spiro[4.5]decan-2-one; compound with trifluoro-acetic acid [Compound I-90]”, for which the IC50 at Human CCR5 receptor (setting [1]) stood at 1.8 nM; at Human CCR5 receptor (setting [2]), 5.1 nM.
`CCCCC1N(CC2CCCCC2)C(=O)OC12CCN(C1CCN(C(=O)c3c(C)cccc3C)CC1)CC2` (stereo not shown) [Compound I-1, 4-Butyl-3-cyclohexylmethyl-8-[1-(2,6-dimethyl-benzoyl)-piperidin-4-yl]-1-oxa-3,8-diaza-spiro[4.5]decan-2-one]: the 50% inhibitory concentration (IC50) at Human CCR5 receptor (setting [3]) is 18 nM; on Human CCR5 receptor (setting [1]), 13 nM; at Human CCR5 receptor (setting [2]) it was 14 nM.
Turning to `CCCCN1C(=O)C([C@@H](O)C2CCCCC2)NC(=O)C12CCN(C1CCN(C(=O)c3c(C)cccc3C)CC1)CC2` (stereo partly drawn) [Compound I-76, 1-Butyl-3-((S)-cyclohexyl-hydroxy-methyl)-9-[1-(2,6-dimethyl-benzoyl)-piperidin-4-yl]-1,4,9-triaza-spiro[5.5]undecane-2,5-dione], the melting point is 246.9 to 248 °C.
With `CCCC[C@@H]1N(CC2CCCCC2)C(=O)OC12CCN(C1CCN(C(=O)c3c(C)cccc3C)CC1)CC2` [Compound I-159, (S)-4-Butyl-3-cyclohexylmethyl-8-[1-(2,6-dimethyl-benzoyl)-piperidin-4-yl]-1-oxa-3,8-diaza-spiro[4.5]decan-2-one], the IC50 on Human CCR5 receptor (setting [3]) turned out to be 4.5 nM; at Human CCR5 receptor (setting [1]), 10.5 nM; on Human CCR5 receptor (setting [2]), 5.1 nM.
For the molecule `CCCCC1N(CC2CCCCC2)C(=O)OC12CCN(C1(C)CCN(C(=O)c3c(C)ncnc3C)CC1)CC2` (stereo not shown) [Compound I-212, 4-Butyl-3-cyclohexylmethyl-8-[1-(4,6-dimethyl-pyrimidine-5-carbonyl)-4-methyl-piperidin-4-yl]-1-oxa-3,8-diaza-spiro[4.5]decan-2-one; compound with trifluoro-acetic acid], at Human CCR5 receptor (setting [2]), the concentration for half-maximal inhibition (IC50) amounted to 7.3 nM.
As for `CCCCC1N(CC2CCCCC2)C(=O)OC12CCN(C1(C)CCN(C(=O)c3c(C)nn(Cc4ccccc4)c3C)CC1)CC2` (stereo not shown) [Compound I-214, 8-[1-(1-Benzyl-3,5-dimethyl-1H-pyrazole-4-carbonyl)-4-methyl-piperidin-4-yl]-4-butyl-3-cyclohexylmethyl-1-oxa-3,8-diaza-spiro[4.5]decan-2-one; compound with trifluoro-acetic acid], the half-maximal inhibitory concentration (IC50) at Human CCR5 receptor (setting [2]) is 8.2 nM.
For the molecule `CCCCC1CN(CC2CCOCC2)C(=O)OC12CCN(C1(C)CCN(C(=O)c3c(C)ncnc3C)CC1)CC2` (stereo not shown) [Compound I-415, 5-Butyl-9-[1-(4,6-dimethyl-pyrimidine-5-carbonyl)-4-methyl-piperidin-4-yl]-3-(tetrahydro-pyran-4-ylmethyl)-1-oxa-3,9-diaza-spiro[5.5]undecan-2-one; compound with trifluoro-acetic acid], the figures for the half-inhibitory concentration (IC50) on Human CCR5 receptor (setting [1]) and on Human CCR5 receptor (setting [2]) were less than 1.5 nM and 7.7 nM, respectively.
